Where “and” joins values, the source holds several entries; their conditions need not be identical. Equal values may be shown once. Read-outs that look alike come from different tables or passages of the source.
What was measured:
dopamine D2 receptors [1] = target: T1, dopamine D2 receptors (Rattus norvegicus, UniProt P61169); experiment: Radioligand binding assay, D2 receptors
CD-1 mice [2] = experiment: d-Amphetamine-induced hyperlocomotor activity
Albino Swiss mice [3] = experiment: Four-plate test
Albino Swiss mice [4] = experiment: Forced swim test; conditions: last 4 min of session
CD-1 mice [5] = experiment: MK-801-induced hyperlocomotor activity
[6] = target: T2, serotonin 5-HT1A receptors (Rattus norvegicus, UniProt P19327); experiment: Radioligand binding assay, 5-HT1A receptors
T2 construct: from tissue; host or cells: rat brain tissues
T2 sequence (P19327 1-422): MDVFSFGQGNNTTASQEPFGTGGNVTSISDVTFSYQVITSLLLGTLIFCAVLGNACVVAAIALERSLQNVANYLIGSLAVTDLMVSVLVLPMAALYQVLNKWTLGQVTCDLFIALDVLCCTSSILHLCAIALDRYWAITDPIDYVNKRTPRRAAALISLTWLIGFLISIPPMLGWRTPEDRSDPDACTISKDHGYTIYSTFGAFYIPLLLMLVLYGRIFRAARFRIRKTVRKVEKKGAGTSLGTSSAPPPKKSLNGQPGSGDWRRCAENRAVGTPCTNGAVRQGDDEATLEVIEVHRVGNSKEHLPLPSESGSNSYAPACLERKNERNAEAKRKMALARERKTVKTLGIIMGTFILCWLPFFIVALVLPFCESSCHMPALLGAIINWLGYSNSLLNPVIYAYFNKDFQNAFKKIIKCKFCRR
Protocol: All compounds were tested for their affinities for 5-HT1A, 5-HT2A, and D2 receptors according to previously described procedures (Stefanowicz et al. [2016]).
Competition binding studies were performed according to a previously described procedure in rat brain tissues (Stefanowicz et al. [2016]).

CD-1 mice [7] = experiment: Spontaneous locomotor activity; type: in vivo
[8] = target: T3, serotonin 5-HT2A receptors (Rattus norvegicus, UniProt P14842); experiment: Radioligand binding assay, 5-HT2A receptors; conditions: rat brain tissues
T3 construct: from tissue; host or cells: rat brain tissues
T3 sequence (P14842 whole entry): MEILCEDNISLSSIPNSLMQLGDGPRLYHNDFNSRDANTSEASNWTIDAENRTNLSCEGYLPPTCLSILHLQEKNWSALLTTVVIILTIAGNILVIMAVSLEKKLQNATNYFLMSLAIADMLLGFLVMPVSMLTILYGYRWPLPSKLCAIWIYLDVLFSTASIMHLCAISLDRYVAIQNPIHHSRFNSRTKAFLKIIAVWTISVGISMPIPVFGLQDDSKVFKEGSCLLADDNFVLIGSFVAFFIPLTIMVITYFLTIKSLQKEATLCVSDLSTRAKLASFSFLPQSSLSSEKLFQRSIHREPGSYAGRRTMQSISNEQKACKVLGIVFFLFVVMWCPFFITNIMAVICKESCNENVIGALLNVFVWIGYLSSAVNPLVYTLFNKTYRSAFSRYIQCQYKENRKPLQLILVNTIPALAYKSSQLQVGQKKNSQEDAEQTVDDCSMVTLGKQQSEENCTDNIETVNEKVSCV

[9] = target: T2, serotonin 5-HT1A receptors; conditions: earlier lead structures, Fig. 1/Fig. 2; ref Słowiński et al. 2011, 2013; Stefanowicz et al. 2016; cited from earlier work
dopamine D2 receptors [10] = target: T1, dopamine D2 receptors; parameters: method as in Słowiński et al. 2011, 2013; Stefanowicz et al. 2016; conditions: earlier lead structures, Fig. 1/Fig. 2; ref Słowiński et al. 2011, 2013; Stefanowicz et al. 2016; cited from earlier work
[11] = target: T3, serotonin 5-HT2A receptors; parameters: method as in Słowiński et al. 2011, 2013; Stefanowicz et al. 2016; conditions: earlier lead structures, Fig. 1/Fig. 2; ref Słowiński et al. 2011, 2013; Stefanowicz et al. 2016; cited from earlier work
[12] = 2.5 mg/kg i.p. 30 min before test
[13] = 10 mg/kg i.p. 30 min before test

T1 sequence (P61169 1-415 isoform P61169-2): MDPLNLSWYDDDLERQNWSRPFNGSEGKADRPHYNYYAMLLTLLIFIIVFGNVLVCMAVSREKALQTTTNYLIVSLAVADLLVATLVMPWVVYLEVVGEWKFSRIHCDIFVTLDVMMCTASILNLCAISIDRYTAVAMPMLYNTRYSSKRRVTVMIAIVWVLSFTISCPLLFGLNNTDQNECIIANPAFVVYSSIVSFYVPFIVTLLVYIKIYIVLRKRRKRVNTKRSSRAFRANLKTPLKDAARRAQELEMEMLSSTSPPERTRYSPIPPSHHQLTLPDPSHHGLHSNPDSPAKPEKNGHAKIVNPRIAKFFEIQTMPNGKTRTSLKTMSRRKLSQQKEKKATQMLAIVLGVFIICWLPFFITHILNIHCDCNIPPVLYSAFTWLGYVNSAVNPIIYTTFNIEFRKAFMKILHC

For `Cc1cccc(CN2C3CCC2CC(NC(=O)c2ccc4ccccc4n2)C3)c1` (stereo not shown) [Compound 12e], the Ki (dopamine D2 receptors [1]) was 52.2 ± 3.4 nM, the IC50 (dopamine D2 receptors [1]; rat brain tissues, read-out: D2 IC50 [nM] ± SEM) was 260 ± 16.7 nM and the “Number of crossings/60 min Mean ± SEM” value (CD-1 mice [2]; compound 2.5 mg/kg i.p. + d-amphetamine 2.5 mg/kg s.c.) was 2993.0 ± 301.0; p < 0.01 vs. amph.; ns vs. contr crossings/60 min. The “Number of crossings/60 min Mean ± SEM” value (CD-1 mice [2]; compound 5 mg/kg i.p. + d-amphetamine 2.5 mg/kg s.c.) was 2651.0 ± 512.6; p < 0.01 vs. amph.; ns vs. contr crossings/60 min, the “Number of crossings/60 min Mean ± SEM” value (CD-1 mice [2]; compound 10 mg/kg i.p. + d-amphetamine 2.5 mg/kg s.c.) was 909.9 ± 11.3; p < 0.0001 vs. amph.; ns vs. contr F(4,42) = 10.584; p < 0.0001 crossings/60 min and the “decrease of locomotor hyperactivity vs. respective d-amphetamine group” value (CD-1 mice [2]; doses of 5 and 10 mg/kg i.p.) was 60–86%. The “Number of punished crossings /1 min Mean ± SEM” value (Albino Swiss mice [3]; [12]) was 3.5 ± 0.3 crossings/1 min, the “Number of punished crossings /1 min Mean ± SEM” value (Albino Swiss mice [3]; 5 mg/kg i.p. 30 min before test) was 2.9 ± 0.3 crossings/1 min and the “Number of punished crossings /1 min Mean ± SEM” value (Albino Swiss mice [3]; [13]) was 3.8 ± 0.5 F(3,36) = 1.3827; NS crossings/1 min. The “Immobility time (s) Mean ± SEM” value (Albino Swiss mice [4]; [12]) was 172.14 ± 11.6 s, the “Immobility time (s) Mean ± SEM” value (Albino Swiss mice [4]; [13]) was 183.33 ± 12.3 F(3,30) = 1.2074; NS s and the melting point was 113.8 to 114.7 °C. For the same molecule, the “effect on MK-801-induced hyperlocomotor activity” value (CD-1 mice [5]; 5 mg/kg, tendency to decrease) was “did not reach a statistically significant level”, the “Number of crossings/60 min Mean ± SEM” value (CD-1 mice [5]; compound 0.625 mg/kg i.p. 30 min + MK-801 0.2 mg/kg) was 4375.1 ± 583.4; ns, ns crossings/60 min and the “Number of crossings/60 min Mean ± SEM” value (CD-1 mice [5]; compound 1.25 mg/kg i.p. 30 min + MK-801 0.2 mg/kg) was 4019.3 ± 341.3; ns, ns crossings/60 min. The “Number of crossings/60 min Mean ± SEM” value (CD-1 mice [5]; compound 2.5 mg/kg i.p. 30 min + MK-801 0.2 mg/kg) was 5440.1 ± 937.3 ns, ns crossings/60 min, the “Number of crossings/60 min Mean ± SEM” value (CD-1 mice [5]; compound 5 mg/kg i.p. 30 min + MK-801 0.2 mg/kg) was 3580.7 ± 384.9; ns, ns F(5,48) = 2.8885; p < 0.05 crossings/60 min and the Ki [6] was 55.3 ± 8.3 nM. For the same molecule, the IC50 ([6]; rat brain tissues, read-out: 5-HT1A IC50 [nM] ± SEM) was 166 ± 25 nM, the “Number of crossings/60 min Mean ± SEM” value (CD-1 mice [7]; [13]) was 1034 ± 255.9 p < 0.05 F(1,18) = 5.4398; p < 0.05 crossings/60 min and the “effect on spontaneous locomotor activity” value (CD-1 mice [7]; doses used in hyperlocomotor activity tests) was “did not change the spontaneous locomotor activity”. For the same molecule, the IC50 ([8]; read-out: 5-HT2A IC50 [nM] ± SEM) was > 10000 nM and the Ki ([8]; read-out: 5-HT2A Ki [nM] ± SEM) was > 10000 nM.

For `O=C(NC1CC2CCC(C1)N2Cc1ccccc1)c1ccc2ccccc2c1` (stereo not shown) [compound A], the Ki [9] is given as 304 nM, the Ki (dopamine D2 receptors [10]) is given as 82.4 nM and the Ki [11] is given as 2.5 nM.

For `C[C@H](N)Cc1ccccc1` [d-amphetamine, reference compound], the “Number of crossings/60 min Mean ± SEM” value (CD-1 mice [2]; d-amphetamine alone 2.5 mg/kg s.c. 30 min before test) was 6819.9 ± 1534.7; p < 0.05 vs. contr crossings/60 min and 6553.1 ± 1214.5; p < 0.001 vs. contr crossings/60 min.

In the case of `O=C(NC1CC2CCC(C1)N2Cc1cccc(Br)c1)c1ccc2ccccc2c1` (stereo not shown) [R = -Br], the Ki [11] is given as 106 nM.
